Results published in ChEMBL document CHEMBL6096737, “Discovery of Pyrrolopyrazine Carboxamide Derivatives as Potent and Selective FGFR2/3 Inhibitors that Overcome Mutant Resistance” (J Med Chem, 2025).
One block for each compound: values may come before it.

Key:
physchem [1] = conditions: glutathione (GSH) solution, 0.1 uM GSH
physchem [2] = conditions: glutathione (GSH) solution, 1 uM GSH
in vivo [3] = conditions: male, Sprague-Dawley, rat, po, 10 mg/kg
in vivo [4] = conditions: female, CD-1, mouse, po, 10 mg/kg
in vivo [5] = conditions: female, CD-1, mouse, po, 10 mg/kg; remark: listed apart in the source
in vivo [6] = conditions: male, Beagle, dog, po, 5 mg/kg
in vivo [7] = conditions: male, Beagle, dog, plasma, iv, 1 mg/kg
in vivo [8] = conditions: male, Beagle, dog, po, 5 mg/kg; remark: listed apart in the source
in vivo [9] = conditions: male, Sprague-Dawley, rat, po, 10 mg/kg; remark: listed apart in the source
in vivo [10] = conditions: male, Sprague-Dawley, rat, po, 10 mg/kg; remark: listed apart in the source
in vivo [11] = conditions: male, Beagle, dog, po, 5 mg/kg; remark: listed apart in the source
in vivo [12] = conditions: female, Balb/c, mouse, po, 10 mg/kg
in vivo [13] = conditions: female, Balb/c, mouse, po, 10 mg/kg; remark: listed apart in the source
in vivo [14] = conditions: male, Sprague-Dawley, rat, po, 10 mg/kg; remark: listed apart in the source
in vivo [15] = conditions: female, Balb/c, mouse, po, 10 mg/kg; remark: listed apart in the source
in vivo [16] = conditions: female, CD-1, mouse, po, 10 mg/kg; remark: listed apart in the source
in vitro = conditions: human, plasma
in vivo [17] = conditions: male, Beagle, dog, po, 5 mg/kg; remark: listed apart in the source
in vivo [18] = conditions: male, Sprague-Dawley, rat, po, 10 mg/kg; remark: listed apart in the source
in vivo [19] = conditions: male, Sprague-Dawley, rat, plasma, iv, 1 mg/kg
in vivo [20] = conditions: male, Beagle, dog, po, 5 mg/kg; remark: listed apart in the source
in vivo [21] = conditions: female, CD-1, mouse, po, 10 mg/kg; remark: listed apart in the source
in vivo [22] = conditions: female, CD-1, mouse, plasma, iv, 1 mg/kg
in vivo [23] = conditions: female, CD-1, mouse, po, 10 mg/kg; remark: listed apart in the source

half-life (physchem [1]): 0.8 h
half-life (physchem [2]): 0.9 h
Compound: C=C(CO)C(=O)Nc1ccc(-c2c(-c3ccc(Oc4nccc(C)n4)cc3)c(C(N)=O)c3cnc(C)cn23)cc1

MRT last at 24 h (in vivo [3]): 0.23 h
MRT last at 24 h (in vivo [4]): 2 h
half-life at 24 h (in vivo [5]): 2.4 h
half-life at 24 h (in vivo [6]): 2.3 h
clearance at 24 h (in vivo [7]): 24.9 mL/min/kg
AUC(0-t) at 24 h (in vivo [8]): 2680 ng·h/mL
Cmax at 24 h (in vivo [9]): 111 ng/mL
AUC(0-t) at 24 h (in vivo [10]): 448 ng·h/mL
Cmax at 24 h (in vivo [11]): 1360 ng/mL
MRT last at 8 h (in vivo [12]): 2.7 h
AUC(0-t) at 8 h (in vivo [13]): 20000 ng·h/mL
bioavailability at 24 h (in vivo [14]): 16%
Cmax at 8 h (in vivo [15]): 3740 ng/mL
Cmax at 24 h (in vivo [16]): 5760 ng/mL
half-life (in vitro): > 4.82 h
MRT last at 24 h (in vivo [17]): 0.87 h
half-life at 24 h (in vivo [18]): 0.77 h
clearance at 24 h (in vivo [19]): 59.4 mL/min/kg
bioavailability at 24 h (in vivo [20]): 75.4%
Compound: C=C(C)C(=O)Nc1ccc(-c2c(-c3ccc(Oc4nccc(C)n4)c(F)c3)c3c(N)ncnc3n2C)cc1 [LIRAFUGRATINIB]

bioavailability at 24 h (in vivo [21]): 41.9%
clearance at 24 h (in vivo [22]): 29.1 mL/min/kg
half-life (in vitro): > 4.82 h
AUC(0-t) at 24 h (in vivo [23]): 2470 ng·h/mL
Compound: C=C(F)C(=O)Nc1ccc(-c2c(-c3ccc(Oc4nccc(C)n4)cc3)c(C(N)=O)c3cnc(C)cn23)c(F)c1
